In PubChem BioAssay (NCI):
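Results reflect a 48-hour exposure of cells in 96-well plates to compound at five concentrations. GI50 marks 50% less growth. TGI is the concentration that stops growth completely.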

Legend:
Assay in all cases: inhibition of tumour cell growth, NCI panel, 48 h
[1] = test system: OVCAR-5 ovarian
[2] = test system: SK-MEL-28 melanoma
[3] = test system: NCI-H23 lung
[4] = test system: PC-3 prostate
[5] = test system: SF-295 CNS
[6] = test system: UO-31 renal
[7] = test system: HCT-116 colon
[8] = test system: OVCAR-4 ovarian
[9] = test system: OVCAR-8 ovarian
[10] = test system: DU-145 prostate
[11] = test system: RXF 393 renal
[12] = test system: K-562 leukemia
[13] = test system: OVCAR-3 ovarian
[14] = test system: NCI-H226 lung
[15] = test system: MALME-3M melanoma
[16] = test system: MCF7 breast
[17] = test system: SW-620 colon
[18] = test system: A498 renal
[19] = test system: LOX IMVI melanoma
[20] = test system: UACC-62 melanoma
[21] = test system: HOP-92 NSCLC
[22] = test system: ACHN renal
[23] = test system: SR leukemia
[24] = test system: M14 melanoma
[25] = test system: SN12C renal
[26] = test system: IGROV1 ovarian
[27] = test system: SF-268 CNS
[28] = test system: T-47D breast
[29] = test system: KM12 colon
[30] = test system: NCI-H522 lung
[31] = test system: U251 CNS
[32] = test system: 786-0 renal
[33] = test system: HOP-62 NSCLC
[34] = test system: HT29 colon
[35] = test system: NCI-H460 lung
[36] = test system: SK-OV-3 ovarian
[37] = test system: A549 NSCLC
[38] = test system: TK-10 renal
[39] = test system: BT-549 breast
[40] = test system: CAKI-1 renal
[41] = test system: HS 578T breast
[42] = test system: HCT-15 colon
[43] = test system: MDA-MB-231 breast
[44] = test system: MOLT-4 leukemia
[45] = test system: SK-MEL-5 melanoma
[46] = test system: HCC-2998 colon
[47] = test system: SF-539 CNS
[48] = test system: COLO 205 colon
[49] = test system: RPMI-8226 leukemia
[50] = test system: HL-60(TB) leukemia
[51] = test system: CCRF-CEM leukemia
[52] = test system: MDA-MB-435
[53] = test system: UACC-257 melanoma
[54] = test system: SK-MEL-2 melanoma
[55] = test system: EKVX NSCLC
[56] = test system: SNB-75 CNS
[57] = test system: SNB-19 CNS

COc1ccc(N(Cc2cc(OC)c(OC)c(OC)c2)C2OC(=O)c3ccccc32)cc1 (stereo not given)
GI50 [1]: 3530 nM | TGI [1]: > 100000 nM | TGI [2]: > 100000 nM | GI50 [3]: 1150 nM | TGI [3]: > 100000 nM | GI50 [4]: 666 nM | TGI [4]: > 100000 nM | GI50 [5]: 534 nM | TGI [5]: > 100000 nM | GI50 [6]: 2300 nM | TGI [6]: > 100000 nM | GI50 [7]: 426 nM | TGI [7]: > 100000 nM | GI50 [8]: 5950 nM | TGI [8]: > 100000 nM | GI50 [9]: 779 nM | TGI [9]: > 100000 nM | GI50 [10]: 886 nM | TGI [10]: 54300 nM | GI50 [11]: 612 nM | TGI [11]: > 100000 nM | GI50 [12]: 346 nM | TGI [12]: > 100000 nM | GI50 [13]: 368 nM | TGI [13]: 1980 nM | GI50 [14]: 21800 nM | TGI [14]: > 100000 nM | GI50 [15]: 511 nM | TGI [15]: > 100000 nM | GI50 [16]: 386 nM | TGI [16]: > 100000 nM | GI50 [17]: 374 nM | TGI [17]: > 100000 nM | GI50 [18]: 249 nM | TGI [18]: 1610 nM | GI50 [19]: 712 nM | TGI [19]: > 100000 nM | GI50 [20]: 498 nM | TGI [20]: > 100000 nM | GI50 [21]: 349 nM | TGI [21]: > 100000 nM | GI50 [22]: 690 nM | TGI [22]: > 100000 nM | GI50 [23]: 456 nM | TGI [23]: > 100000 nM | GI50 [24]: 390 nM | TGI [24]: > 100000 nM | GI50 [25]: 703 nM | TGI [25]: > 100000 nM | GI50 [26]: 1070 nM | TGI [26]: > 100000 nM | GI50 [27]: 882 nM | TGI [27]: > 100000 nM | GI50 [28]: 78000 nM | TGI [28]: > 100000 nM | GI50 [29]: 434 nM | TGI [29]: > 36700 nM | GI50 [30]: 286 nM | TGI [30]: 3110 nM | GI50 [31]: 385 nM | TGI [31]: > 34700 nM | GI50 [32]: 701 nM | TGI [32]: > 100000 nM | GI50 [33]: 783 nM | TGI [33]: > 100000 nM | GI50 [34]: 365 nM | TGI [34]: > 43100 nM | GI50 [35]: 394 nM | TGI [35]: > 60200 nM | GI50 [36]: 1230 nM | TGI [36]: > 100000 nM | GI50 [37]: 626 nM | TGI [37]: > 100000 nM | TGI [38]: > 100000 nM | GI50 [39]: 428 nM | TGI [39]: > 100000 nM | GI50 [40]: 532 nM | TGI [40]: > 100000 nM | GI50 [41]: 373 nM | TGI [41]: > 100000 nM | GI50 [42]: 424 nM | TGI [42]: > 100000 nM | GI50 [43]: 1210 nM | TGI [43]: > 25400 nM | GI50 [44]: 661 nM | TGI [44]: > 100000 nM | GI50 [45]: 474 nM | TGI [45]: 53100 nM | GI50 [46]: 1570 nM | TGI [46]: > 28500 nM | GI50 [47]: 317 nM | TGI [47]: 1240 nM | GI50 [48]: 390 nM | TGI [48]: 5770 nM | GI50 [49]: 539 nM | TGI [49]: > 100000 nM | GI50 [50]: 308 nM | TGI [50]: 2250 nM | GI50 [51]: 435 nM | TGI [51]: > 100000 nM | GI50 [52]: 165 nM | TGI [52]: 433 nM

COc1cc(C(=O)/C=C/c2c(C(F)(F)F)nc3sccn23)cc(OC)c1OC
GI50 [2]: 1690 nM | TGI [2]: 3100 nM | GI50 [3]: 1720 nM | TGI [3]: 3890 nM | GI50 [4]: 2660 nM | TGI [4]: 8690 nM | GI50 [5]: 2580 nM | TGI [5]: 7860 nM | GI50 [6]: 1870 nM | TGI [6]: 3710 nM | GI50 [7]: 1010 nM | TGI [7]: 2190 nM | GI50 [8]: 3050 nM | TGI [8]: 17600 nM | GI50 [9]: 3080 nM | TGI [9]: 22600 nM | GI50 [10]: 1410 nM | TGI [10]: 2860 nM | GI50 [11]: 2020 nM | TGI [11]: 4240 nM | GI50 [12]: 1740 nM | TGI [12]: 6270 nM | GI50 [13]: 1860 nM | TGI [13]: 3400 nM | GI50 [14]: 2170 nM | TGI [14]: 5540 nM | GI50 [15]: 1590 nM | TGI [15]: 3670 nM | GI50 [53]: 1900 nM | TGI [53]: 4200 nM | GI50 [16]: 1250 nM | TGI [16]: 3330 nM | GI50 [17]: 1670 nM | TGI [17]: 3560 nM | GI50 [18]: 1890 nM | TGI [18]: 3420 nM | GI50 [19]: 1360 nM | TGI [19]: 2890 nM | GI50 [20]: 1520 nM | TGI [20]: 2950 nM | GI50 [21]: 7000 nM | TGI [21]: 22400 nM | GI50 [22]: 1820 nM | TGI [22]: 3660 nM | GI50 [23]: 540 nM | TGI [23]: 3610 nM | GI50 [25]: 1560 nM | TGI [25]: 3690 nM | GI50 [26]: 2660 nM | TGI [26]: 61400 nM | GI50 [27]: 1740 nM | TGI [27]: 3570 nM | GI50 [28]: 2120 nM | TGI [28]: 5760 nM | GI50 [29]: 1470 nM | TGI [29]: 2970 nM | GI50 [54]: 2260 nM | TGI [54]: 5090 nM | GI50 [30]: 2030 nM | TGI [30]: 4910 nM | GI50 [31]: 1380 nM | TGI [31]: 2790 nM | GI50 [32]: 1760 nM | TGI [32]: 3160 nM | GI50 [33]: 1930 nM | TGI [33]: 3920 nM | GI50 [34]: 1830 nM | TGI [34]: 4080 nM | GI50 [35]: 1650 nM | TGI [35]: 3940 nM | GI50 [36]: 2870 nM | TGI [36]: 8990 nM | GI50 [37]: 3440 nM | TGI [37]: 18000 nM | GI50 [55]: 2720 nM | TGI [55]: 10700 nM | GI50 [56]: 1870 nM | TGI [56]: 4860 nM | GI50 [38]: 2300 nM | TGI [38]: 5120 nM | GI50 [39]: 2260 nM | TGI [39]: 6870 nM | GI50 [40]: 1760 nM | TGI [40]: 5310 nM | GI50 [57]: 2670 nM | TGI [57]: 10200 nM | GI50 [42]: 1800 nM | TGI [42]: 5390 nM | GI50 [43]: 2920 nM | TGI [43]: 9840 nM | GI50 [44]: 1920 nM | TGI [44]: 5810 nM | GI50 [45]: 1590 nM | TGI [45]: 2960 nM | GI50 [46]: 1710 nM | TGI [46]: 3130 nM | GI50 [47]: 1550 nM | TGI [47]: 2960 nM | GI50 [48]: 1940 nM | TGI [48]: 3440 nM | GI50 [49]: 1080 nM | TGI [49]: 4530 nM | GI50 [50]: 1830 nM | TGI [50]: 7630 nM | GI50 [51]: 1240 nM | TGI [51]: 8340 nM | GI50 [52]: 1610 nM | TGI [52]: 4350 nM
